According to patent publication US12584904B2, “Methods for monitoring physiological status of a body organ” (BioCrine AB, priority 2012, dated 2026):
“Also recorded” adds a separate entry of the source.

Experiments:
ob/ob mice [1] = assay: Physiological measurements during leptin treatment of ob/ob mice; assay type: in vivo, mouse
Experimental: (§1) Having witnessed the behavior of individual islets in response to food over-consumption and insulin resistance, we next questioned if this growth could be refrained or even reversed by treating the ob/ob mice with leptin. Mice were injected intraperitoneally every day between 3 and 4 months of age. The physiological effects of this treatment were monitored regularly using different parameters.
Leptin treatment was performed by daily intraperitoneal injections of 1.5 μg/g body weight of recombinant human leptin (Amylin Pharmaceuticals), and sham treatment was performed by intraperitoneal injection of water instead of leptin.
(§2) Body weight and blood glucose levels were measured in a minimum of 7 mice. Glucose concentrations were obtained using Accu-Chek™ Aviva monitoring system (Roche). Glucose tolerance tests were performed by intraperitoneal injection of 2 mg glucose per gram body weight in mice fasted for 16 hours (n≥5). Plasma insulin concentrations from a minimum of 3 mice per condition were measured using mouse insulin ELISA plates (Mercodia). Leptin treatment was performed by daily intraperitoneal injections of 1.5 μg/g body weight of recombinant human leptin (Amylin Pharmaceuticals), and sham treatment was performed by intraperitoneal injection of water instead of leptin.

ob/ob mice [2] = assay: Intraperitoneal glucose tolerance test after leptin treatment; assay type: in vivo, mouse
Experimental: as §1, §2

[3] = tested on: islet grafts in the anterior chamber of the eye of ob/ob mice; assay: Longitudinal in vivo confocal imaging of intraocular islet grafts under leptin treatment; set-up: species or system mouse
Source text: (§3) Islet grafts in mice were imaged in vivo at specific time points after transplantation. We used an upright laser scanning confocal microscope based on TCS-SP2-AOBS (Leica) with a long-distance water-dipping objective (Leica HXC-APO 10×/0.30NA), and a custom-built stereotaxic head holder allowing to position the mouse eye containing the engrafted islets towards the objective. Viscotears (Novartis) was used as immersion liquid between the eye and the objective, and isoflurane was used to anesthetize the mice during in vivo imaging. Imaging of islet morphology was done by laser illumination at 633 nm, and collection of backscattered light at the same wavelength.
Islets were isolated from female donor mice and transplanted into the anterior chamber of the eye of male recipients, using a previously described technique (2). We anesthetized mice using isoflurane (Baxter), and approximately 10-20 islets were transplanted into the anterior chamber of the mouse eye. Islets used for transplantation were selected to be of similar size for each experiment, independent of the mouse genotype. The mice were injected subcutaneously with Temgesic™ (Schering-Plough) for postoperative analgesia.
as §3, with “transplantation as previously described (2).” for “transplantation.”, “Viscotears™” for “Viscotears”, “wavelength. For visualization of blood vessels we injected 100 μl of a solution containing 2.5 mg/ml of 500 kDa FITC-labeled dextran (Invitrogen) into the tail vein, and imaged fluorescence using 496 nm excitation wavelength. Scanning speed and laser intensities were adjusted to avoid any cellular damage to the mouse eye or islet graft.” for “wavelength.”
AutoQuant X2 (Media Cybernetics) was used for blind deconvolution of all in vivo confocal images before image analysis. Islet volume was analyzed based on the backscatter signal channel, using Matlab™ and the Image Processing Toolbox (Mathworks). The islet “equatorial volume”, i.e. the volume from the top of the islet down to the calculated equator, was used to represent the volume and calculate islet growth. We analyzed a minimum of 3 islet grafts per animal to determine islet growth, with a minimum of 3 mice per category. Individual vessel segments were identified at different imaging time points and their diameter measured using Volocity™ (Perkin Elmer). We established image analysis protocols in Volocity™ for automated analysis of histological sections. The average beta cell section area was obtained by dividing the insulin-stained area by the total number of DAPI-stained nuclei enclosed in this area (minimum of 1000 cells per tissue). Beta cell proliferation rate was obtained by counting Ki67-positive nuclei and dividing by the total number of DAPI-stained nuclei in insulin-positive cells (minimum of 10000 cells per transplanted eye or pancreas). Volocity™ was used for image display and Photoshop CS5 (Adobe) for image assembly.

[4] = tested on: beta cells of ob/ob mouse islets; assay: Immunohistochemistry of transplanted eye and pancreas sections after leptin treatment; assay type: in vivo; details: for proliferation of beta cells (insulin and Ki67 staining): end of leptin treatment
Experimental: Dissected tissues were briefly rinsed with PBS, fixed for 48 h at room temperature using formalin, and dehydrated and embedded in paraffin. Five-micron thick sections mounted on precoated microscope slides were dewaxed by xylene and progressively rehydrated before processing. Insulin was stained using chicken anti-insulin (1:200 dilution, Abcam) followed by goat anti-chicken Alexa™ 488 (1:1000 dilution, Invitrogen) antibodies; blood vessels were stained using rat anti-mouse CD31 (1:50 dilution, BD Pharmingen), followed by incubation of biotinylated goat anti-rat (5 μg/ml, Vector Labs) and amplification with HRP-streptavidin/Alexa™ 647-tyramide (Invitrogen); proliferation was assessed by using mouse anti-human Ki67 (1:50 dilution, Novocastra) together with M.O.M. biotinylated anti-mouse IgG (Vector Labs), and amplified using HRP-streptavidin/Alexa 647-tyramide. Nuclei were stained and slides were preserved by cover glass mounting using ProLong™ Gold Antifade Reagent with DAPI (Invitrogen). Slides were imaged using a BD Pathway 855 system (BD Biosciences). Insulin, CD31, Ki67 and DAPI stainings were imaged using a 20×/0.75NA UApo/340 Olympus objective, and overviews of pancreatic sections stained by hematoxylin/eosin were obtained by montage capture mode using a 4×/0.16NA UPlan SApo Olympus objective.
AutoQuant X2 (Media Cybernetics) was used for blind deconvolution of all in vivo confocal images before image analysis. Islet volume was analyzed based on the backscatter signal channel, using Matlab™ and the Image Processing Toolbox (Mathworks). The islet “equatorial volume”, i.e. the volume from the top of the islet down to the calculated equator, was used to represent the volume and calculate islet growth. We analyzed a minimum of 3 islet grafts per animal to determine islet growth, with a minimum of 3 mice per category. Individual vessel segments were identified at different imaging time points and their diameter measured using Volocity™ (Perkin Elmer). We established image analysis protocols in Volocity™ for automated analysis of histological sections. […]

[5] = daily i.p. leptin 1.5 μg/g, during treatment

leptin: recombinant human leptin (Amylin Pharmaceuticals), hormone encoded by the ob gene
body weight after the end of the treatment period (ob/ob mice [1]; after end of leptin treatment, mass similar to untreated ob/ob about one month later): rapidly increased | body weight (ob/ob mice [1]; daily i.p. leptin 1.5 μg/g between 3 and 4 months of age, during treatment): decrease | blood glucose (ob/ob mice [1]; [5]): decrease | insulin concentrations (plasma) (ob/ob mice [1]; [5]): decrease | appetite (ob/ob mice [1]; daily i.p. leptin, during treatment): visibly reduced | glucose handling in intraperitoneal glucose tolerance test (glucose excursions, AUC) (ob/ob mice [2]; ob/ob mice at end of treatment period, 2 mg glucose/g i.p., 16 h fasted): normalized; also recorded: glucose excursions similar to those obtained from age-matched control mice | insulin sensitivity (ob/ob mice [2]; ob/ob mice, end of leptin treatment): beneficial impact | islet growth after the end of treatment ([3]; ob/ob mice, after end of leptin or sham treatment): no difference in islet growth | islet growth (islet volume) of islet transplants ([3]; ob/ob mice, during leptin treatment versus sham treatment): reversal of islet growth; also recorded: abolished and partially reversed | angiogenesis in the islet grafts ([3]; ob/ob mice, early stage after leptin treatment): could observe angiogenesis | vessel diameter in islet grafts ([3]; ob/ob mice, leptin treatment, dextran-FITC imaging): rapid effect on blood vessel diameters; also recorded: decrease | granulation of islet cells (reflective optical properties, backscatter) ([3]; transplanted islets in leptin-treated ob/ob mice): regranulation | proliferation of beta cells (insulin and Ki67 staining) ([4]; engrafted islets (transplanted eye)): attenuated; also recorded: virtually abolished | average beta cell size ([4]; following leptin treatment, transplanted or endogenous pancreatic islets, versus age-matched untreated control mice): no significant difference compared to age-matched untreated control mice | proliferation of beta cells (insulin and Ki67 staining) ([4]; in situ pancreatic islets): attenuated; also recorded: virtually abolished
